Drawing on PubChem BioAssay AID330 (DTP/NCI, 2004), this text covers T/C for 26 molecules.

Several values for one entry are separate records, joined by “and”; a condition that tells them apart may be missing. Equal values may be shown once. Inconclusive results and toxic doses are left out.

In the test the test system is P388 leukemia ip, CD2F1 mice, survival T/C. The test can be described thus: NCI In Vivo Anticancer Drug Screen. Data for tumor model P388 Leukemia (intraperitoneal) in CD2F1 (CDF1) mice. To be noted: endpoint: median survival time, higher = longer survival. In a few lines: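 Mice carrying the transplanted tumor received test compound or vehicle. Survival was recorded in each group, and the value is the treated-group measurement divided by that of the vehicle-treated control group.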

The mark [1] stands for this setting: dose: 50.0 mg/kg/injection, schedule: Q01DX009 (ip), vehicle: saline with Tween-80.
[2] abbreviates: dose: 100.0 mg/kg/injection, schedule: Q01DX009 (ip), vehicle: saline with Tween-80.
The mark [3] stands for this setting: dose: 200.0 mg/kg/injection, schedule: Q01DX009 (ip), vehicle: saline with Tween-80.
[4] abbreviates: dose: 100.0 mg/kg/injection, schedule: Q04DX003 (ip), vehicle: saline sonified.
[5] abbreviates: dose: 200.0 mg/kg/injection, schedule: Q04DX003 (ip), vehicle: saline sonified.
Where [6] appears, read: dose: 25.0 mg/kg/injection, schedule: Q01DX009 (ip), vehicle: Klucel (hydroxypropylcellulose) (HPC).
The mark [7] stands for this setting: dose: 50.0 mg/kg/injection, schedule: Q01DX009 (ip), vehicle: saline.
Setting [8] is: dose: 100.0 mg/kg/injection, schedule: Q01DX009 (ip), vehicle: saline.
Setting [9] is: dose: 200.0 mg/kg/injection, schedule: Q01DX009 (ip), vehicle: saline.
Where [10] appears, read: dose: 50.0 mg/kg/injection, schedule: Q01DX009 (ip), vehicle: Klucel (hydroxypropylcellulose) (HPC).
[11] abbreviates: dose: 100.0 mg/kg/injection, schedule: Q01DX009 (ip), vehicle: Klucel (hydroxypropylcellulose) (HPC).
The mark [12] stands for this setting: dose: 200.0 mg/kg/injection, schedule: Q01DX009 (ip), vehicle: Klucel (hydroxypropylcellulose) (HPC).
[13] abbreviates: dose: 60.0 mg/kg/injection, schedule: Q01DX005 (ip), vehicle: Klucel (hydroxypropylcellulose) (HPC).
Setting [14] is: dose: 120.0 mg/kg/injection, schedule: Q01DX005 (ip), vehicle: Klucel (hydroxypropylcellulose) (HPC).
Where [15] appears, read: dose: 240.0 mg/kg/injection, schedule: Q01DX005 (ip), vehicle: Klucel (hydroxypropylcellulose) (HPC).

For `O=C1CC(SC(=S)C2CCCC2=O)C(=O)O1` (stereo not given), the T/C is 109 % of control and 118 % of control (dose: 12.5 mg/kg/injection, schedule: Q01DX009 (ip), vehicle: saline with Tween-80); 109 % of control and 118 % of control (dose: 25.0 mg/kg/injection, schedule: Q01DX009 (ip), vehicle: saline with Tween-80); 118 % of control under setting [1].

Regarding `O=c1[nH]cnc2nc3c(nc12)CCc1ccccc1-3`, the T/C reads like this: (dose: 60.0 mg/kg/injection, schedule: Q01DX005 (ip), vehicle: saline with Tween-80) 100 % of control; (dose: 120.0 mg/kg/injection, schedule: Q01DX005 (ip), vehicle: saline with Tween-80) 102 % of control; (dose: 240.0 mg/kg/injection, schedule: Q01DX005 (ip), vehicle: saline with Tween-80) 97 % of control.

Turning to `COc1ccc(OC)c(NC(=O)Oc2c(C)cc(Cl)cc2Br)c1`, the T/C is 97 % of control under setting [1], 99 % of control under setting [2] and 100 % of control under setting [3].

In the case of `COC(=O)CC(=O)c1ccc(OCCOc2ccc(C(C)(C)CC(C)(C)C)cc2)c([N+](=O)[O-])c1`, the T/C reads like this: (dose: 50.0 mg/kg/injection, schedule: Q04DX003 (ip), vehicle: saline sonified) 100 % of control; under setting [4], 100 % of control; under setting [5], 104 % of control.

For the molecule `CCCCCCCCCCCCCCCCCC[n+]1cccc(C2CCCN2C)c1` (stereo not given) (tested in a mixture with another compound), the T/C under setting [6] was 104 % of control.

As to `CSc1ccc(NC(=S)SC(C)C)cc1Cl`, the T/C was 97 % of control under setting [7], 97 % of control under setting [8] and 102 % of control under setting [9].

On to `O=c1sc(N=Nc2ccccc2)nn1-c1ccccc1`, for which the T/C (dose: 50.0 mg/kg/injection, schedule: Q04DX003 (ip), vehicle: other) is 90 % of control; the T/C (dose: 100.0 mg/kg/injection, schedule: Q04DX003 (ip), vehicle: other) is 95 % of control; the T/C (dose: 200.0 mg/kg/injection, schedule: Q04DX003 (ip), vehicle: other) is 95 % of control.

For `CC1CCC2(CC1)CCN(CCCN(C)C)CC2`, the T/C under setting [7] was 99 % of control and the T/C under setting [8] was 103 % of control.

Turning to `CCSc1cccc2nncn12`, the T/C by setting is: (dose: 50.0 mg/kg/injection, schedule: Q01DX001 (ip), vehicle: saline) 103 % of control; (dose: 100.0 mg/kg/injection, schedule: Q01DX001 (ip), vehicle: saline) 100 % of control; (dose: 200.0 mg/kg/injection, schedule: Q01DX001 (ip), vehicle: saline) 100 % of control.

With `CCN(CC)CCOC(=O)Cc1cc(C)cc2c(=O)cc(-c3ccccc3)oc12`, the T/C by setting is: (dose: 50.0 mg/kg/injection, schedule: Q01DX005 (ip), vehicle: Klucel (hydroxypropylcellulose) (HPC)) 97 % of control; (dose: 100.0 mg/kg/injection, schedule: Q01DX005 (ip), vehicle: Klucel (hydroxypropylcellulose) (HPC)) 102 % of control; (dose: 200.0 mg/kg/injection, schedule: Q01DX005 (ip), vehicle: Klucel (hydroxypropylcellulose) (HPC)) 101 % of control.

As for `C/C(=N\N=N\c1ccc(C)s1)c1ccccc1`, the T/C was 105 % of control (dose: 50.0 mg/kg/injection, schedule: Q01DX005 (ip), vehicle: Klucel + Tween-80); 105 % of control (dose: 100.0 mg/kg/injection, schedule: Q01DX005 (ip), vehicle: Klucel + Tween-80); 97 % of control (dose: 200.0 mg/kg/injection, schedule: Q01DX005 (ip), vehicle: Klucel + Tween-80).

As for `O=C(C(Br)C(Br)c1ccccc1)C(Br)C(Br)c1ccccc1` (stereo not given), the T/C runs as follows: under setting [4], 104 % of control; under setting [5], 100 % of control; (dose: 400.0 mg/kg/injection, schedule: Q04DX003 (ip), vehicle: saline sonified) 95 % of control.

For `CCC(c1ccc(OCC(=O)NCCCl)cc1)C(CC)c1ccc(OCC(=O)NCCCl)cc1` (stereo not given), the T/C was 97 % of control under setting [7], 93 % of control under setting [8] and 88 % of control under setting [9].

On to `CCCCCCCCCCC(=O)C(=O)c1ccc(O)cc1O`, for which the T/C under setting [10] is 111 % of control, the T/C under setting [11] is 112 % of control and the T/C under setting [12] was 113 % of control.

Consider `CC(C)C12OC1C1OC13C1(C)CCC4=C(COC4=O)C1CC1OC13C2=O` (stereo not given), for which the T/C is 110 % of control (dose: 2.5 mg/kg/injection, schedule: Q01DX005 (ip), vehicle: saline + alcohol); 100 % of control (dose: 5.0 mg/kg/injection, schedule: Q01DX005 (ip), vehicle: saline + alcohol); 114 % of control (dose: 20.0 mg/kg/injection, schedule: Q01DX005 (ip), vehicle: saline + alcohol).

Take `CN(C)C(=C[N+](=O)[O-])N(C)C`: the T/C was 101 % of control under setting [7], 103 % of control under setting [8] and 104 % of control under setting [9].

Take `c1ccc2c(c1)CCc1ccccc1C2NC1=NCCO1`: the T/C by setting is: (dose: 12.5 mg/kg/injection, schedule: Q04DX003 (ip), vehicle: saline with Tween-80) 90 % of control; (dose: 25.0 mg/kg/injection, schedule: Q04DX003 (ip), vehicle: saline with Tween-80) 90 % of control; (dose: 50.0 mg/kg/injection, schedule: Q04DX003 (ip), vehicle: saline with Tween-80) 86 % of control.

Turning to `Cn1c(=O)c2[nH]c(Cc3ccc4c(c3)OCO4)nc2n(C)c1=O`, the T/C reads like this: (dose: 1.56 mg/kg/injection, schedule: Q01DX009 (ip), vehicle: Klucel (hydroxypropylcellulose) (HPC)) 98 % of control; (dose: 3.13 mg/kg/injection, schedule: Q01DX009 (ip), vehicle: Klucel (hydroxypropylcellulose) (HPC)) 97 % of control; (dose: 6.25 mg/kg/injection, schedule: Q01DX009 (ip), vehicle: Klucel (hydroxypropylcellulose) (HPC)) 95 % of control; (dose: 12.5 mg/kg/injection, schedule: Q01DX009 (ip), vehicle: Klucel (hydroxypropylcellulose) (HPC)) 101 % of control; under setting [6], 104 % of control; under setting [10], 87 % of control. Moreover, the T/C is 107 % of control under setting [11] and 100 % of control under setting [12].

For `Cc1cccc(N=NC2Sc3nc4ccccc4n3C2=O)c1` (stereo not given), the T/C by setting is: under setting [13], 89 % of control; under setting [14], 91 % of control.

For the molecule `CCC1C2Cc3ccc(O)cc3C1(CC)CCN2Cc1ccoc1` (stereo not given), the T/C under setting [1] is 96 % of control, the T/C under setting [2] is 88 % of control and the T/C under setting [3] was 91 % of control.

`CC([NH-])C(=O)O.[Cl][Pt][Cl]` (stereo not given): the T/C reads like this: (dose: 12.5 mg/kg/injection, schedule: Q01DX009 (ip), vehicle: saline) 106 % of control; (dose: 25.0 mg/kg/injection, schedule: Q01DX009 (ip), vehicle: distilled water + Tween-80) 154 % of control; (dose: 25.0 mg/kg/injection, schedule: Q01DX009 (ip), vehicle: saline) 113 % of control; under setting [7], 123 % of control; under setting [8], 123 % of control.

On to `O=C(NCCO)c1ccc(O)cc1O`, for which the T/C is, setting by setting: under setting [13], 116 % of control; under setting [14], 120 % of control; under setting [15], 120 % of control.

Consider `O=C(CC(Sc1ccccc1)c1cccc([N+](=O)[O-])c1)c1ccccc1` (stereo not given), for which the T/C is 93 % of control under setting [10] and 95 % of control under setting [11].

On to `Clc1ccc(-c2nnc(-c3cccc(Cl)n3)o2)c(Cl)c1`, for which the T/C (dose: 43.8 mg/kg/injection, schedule: Q01DX005 (ip), vehicle: saline with Tween-80) is 99 % of control and the T/C (dose: 87.5 mg/kg/injection, schedule: Q01DX005 (ip), vehicle: saline with Tween-80) is 87 % of control.

Consider `O=S(=O)(c1ccc(NC(=S)NCc2ccncc2)cc1)N1CCCCC1`, for which the T/C is, setting by setting: under setting [10], 97 % of control; under setting [11], 95 % of control; under setting [12], 98 % of control.

On to `COc1ccc(OC)c2c(Cl)cc(NCCCCCCCCNc3cc(Cl)c4c(OC)ccc(OC)c4n3)nc12`, for which the T/C is, setting by setting: (dose: 30.0 mg/kg/injection, schedule: Q01DX005 (ip), vehicle: Klucel (hydroxypropylcellulose) (HPC)) 101 % of control; under setting [13], 101 % of control; under setting [14], 100 % of control; under setting [15], 100 % of control.
